# Measurements taken from ChEMBL document CHEMBL1201862, “PubChem BioAssay data set” (2004).
# Activity calls are given as the source filed them.
# Columns and labels:
# [1] = molecular target: Mothers against decapentaplegic homolog 3 (Homo sapiens, UniProt P84022); assay: blockers of Smad3 complex formation in lysate – cell lysate, secondary confirmation, chemiluminescent ELISA, HEK293 lysate, dose response (AID 1058); type: functional
# [2] = molecular target: Polyadenylate-binding protein 1 (Homo sapiens, UniProt P11940); assay: blockers of PABP interaction with poly(A) – biochemical, fluorescence polarization, […] (AID 2014)
# [3] = molecular target: Eukaryotic translation initiation factor 4H (Homo sapiens, UniProt Q15056); assay: eIF4H binding inhibition – biochemical, uHTS, fluorescence polarization, translation initiation inhibitor project, primary screen (AID 2012)
# Salmon testes DNA = assay: acridine orange-DNA binding displacement – biochemical, fluorescence polarization, cherry-picked samples, set 2, artefact control for KSHV LANA DNA-binding inhibitor project, dose response (AID 504727); design: species or system Salmonidae
# HEK293 [4] = assay: Fluorescence-based counterscreen for potentiators or agonists of NPY-Y1: cell-based high-throughput dose response assay for inhibitors of cyclic nucleotide gated ion channel (CNGC) activity. In this assay, the parental HEK293 cell line transfected with a cyclic-nucleotide gated ion channel (CNGC)-based cAMP sensor is used to measure inhibition of isoproterenol-induced CNGC …; type: functional; settings: Homo sapiens
# [5] = molecular target: T1, Neuropeptide Y receptor type 1 (Homo sapiens, UniProt P25929); assay: Fluorescence-based dose response cell-based high-throughput screening assay for agonists of NPY-Y1. [Related pubchem assays: 1697 (Screening assay (NPY-Y1 agonists).), 1359 (Screening assay (NPY-Y2 potentiators or agonists).), 1304 (Screening assay (NPY-Y1 potentiators or agonists).), 1704 (Screening assay (CNGC inhibitors).), 1791 (Summary AID.)]; type: functional
# [6] = molecular target: T2, Neuropeptide Y receptor type 2 (Homo sapiens, UniProt P49146); assay: Fluorescence-based counterscreen for agonists of NPY-Y1: cell-based high-throughput dose response assay for agonists of NPY-Y2.; type: functional
# [7] = molecular target: Neurotensin receptor type 1 (Homo sapiens, UniProt P30989); type: functional;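 also: Image-based confirmatory dose-response assay measuring agonist activity at NTR1; NTR1-expressing U2OS osteosarcoma cells imaged for beta-arrestin GFP spot formation; agonist potency where compounds increase beta-arrestin recruitment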
# [8] = molecular target: Serine/threonine-protein phosphatase PP1-alpha catalytic subunit (Homo sapiens, UniProt P62136); assay: inhibition of protein phosphatase 1 activity – biochemical, fluorescence, dose response (AID 2403);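 also: phosphatase turnover of OMFP into fluorescent 3-O-methylfluorescein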
# [9] = molecular target: Serine/threonine-protein phosphatase (Homo sapiens, UniProt Q9BPW0); assay: Counterscreen for inhibitors of PP1: fluorescence-based biochemical high throughput dose response assay to identify inhibitors of Protein Phosphatase 5 (PP5). [Related pubchem assays: 2034 (Summary (PP5 inhibitors)), 1987 (PP5 inhibitors in singlate), 2235 (PP1 inhibitors in singlate)]
# Estrogen receptor = molecular target: T3, Estrogen receptor (Homo sapiens, UniProt P03372);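 also: potency for inhibiting coactivator peptide recruitment to the receptor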
# T3 sequence (P03372 whole entry): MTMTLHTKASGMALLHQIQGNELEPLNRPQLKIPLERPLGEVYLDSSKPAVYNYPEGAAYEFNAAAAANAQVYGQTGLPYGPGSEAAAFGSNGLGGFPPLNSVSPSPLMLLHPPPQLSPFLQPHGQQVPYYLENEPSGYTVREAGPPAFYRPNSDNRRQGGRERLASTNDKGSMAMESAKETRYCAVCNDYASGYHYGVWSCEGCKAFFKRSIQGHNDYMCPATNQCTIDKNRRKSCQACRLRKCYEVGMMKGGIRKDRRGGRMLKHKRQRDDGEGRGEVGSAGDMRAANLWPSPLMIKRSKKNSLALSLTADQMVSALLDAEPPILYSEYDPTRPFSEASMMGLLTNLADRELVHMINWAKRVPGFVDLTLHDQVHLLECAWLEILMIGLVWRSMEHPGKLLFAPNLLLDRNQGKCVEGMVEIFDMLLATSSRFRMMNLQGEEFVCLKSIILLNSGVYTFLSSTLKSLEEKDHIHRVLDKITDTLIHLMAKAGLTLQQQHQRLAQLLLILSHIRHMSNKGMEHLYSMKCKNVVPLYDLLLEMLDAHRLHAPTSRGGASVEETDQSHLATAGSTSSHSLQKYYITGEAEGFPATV
# Bcl-2-like protein 10 = Bcl-2-like protein 10 (Homo sapiens, UniProt Q9HD36); assay: Bcl-B/TR3 peptide binding disruption – biochemical, fluorescence polarization, FITC-TR3 peptide, selectivity assay for Bfl-1 inhibitor project, primary screen (AID 748);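 also: fluorescence polarization from a fluorescein-labelled TR3 peptide binding purified Bcl-B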
# [10] = molecular target: T4, Probable nicotinate-nucleotide adenylyltransferase (Staphylococcus aureus (strain N315), UniProt P65502); type: functional, Staphylococcus aureus subsp. aureus N315; settings: read-out: IC50_Mean;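 as to IC50 Mean: confirmatory dose-response retesting of NadD inhibitor hits first found in an ultra-high-throughput screen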
# Aminopeptidase N = molecular target: T5, Aminopeptidase N (Plasmodium falciparum FcB1/Columbia, UniProt O96935); assay: malaria alanyl aminopeptidase activity blockers – biochemical, fluorogenic H-Leu-NHMec substrate, 1536-well (AID 1445); design: species or system Plasmodium falciparum 3D7, 3D7
# T5 sequence (O96935 whole entry): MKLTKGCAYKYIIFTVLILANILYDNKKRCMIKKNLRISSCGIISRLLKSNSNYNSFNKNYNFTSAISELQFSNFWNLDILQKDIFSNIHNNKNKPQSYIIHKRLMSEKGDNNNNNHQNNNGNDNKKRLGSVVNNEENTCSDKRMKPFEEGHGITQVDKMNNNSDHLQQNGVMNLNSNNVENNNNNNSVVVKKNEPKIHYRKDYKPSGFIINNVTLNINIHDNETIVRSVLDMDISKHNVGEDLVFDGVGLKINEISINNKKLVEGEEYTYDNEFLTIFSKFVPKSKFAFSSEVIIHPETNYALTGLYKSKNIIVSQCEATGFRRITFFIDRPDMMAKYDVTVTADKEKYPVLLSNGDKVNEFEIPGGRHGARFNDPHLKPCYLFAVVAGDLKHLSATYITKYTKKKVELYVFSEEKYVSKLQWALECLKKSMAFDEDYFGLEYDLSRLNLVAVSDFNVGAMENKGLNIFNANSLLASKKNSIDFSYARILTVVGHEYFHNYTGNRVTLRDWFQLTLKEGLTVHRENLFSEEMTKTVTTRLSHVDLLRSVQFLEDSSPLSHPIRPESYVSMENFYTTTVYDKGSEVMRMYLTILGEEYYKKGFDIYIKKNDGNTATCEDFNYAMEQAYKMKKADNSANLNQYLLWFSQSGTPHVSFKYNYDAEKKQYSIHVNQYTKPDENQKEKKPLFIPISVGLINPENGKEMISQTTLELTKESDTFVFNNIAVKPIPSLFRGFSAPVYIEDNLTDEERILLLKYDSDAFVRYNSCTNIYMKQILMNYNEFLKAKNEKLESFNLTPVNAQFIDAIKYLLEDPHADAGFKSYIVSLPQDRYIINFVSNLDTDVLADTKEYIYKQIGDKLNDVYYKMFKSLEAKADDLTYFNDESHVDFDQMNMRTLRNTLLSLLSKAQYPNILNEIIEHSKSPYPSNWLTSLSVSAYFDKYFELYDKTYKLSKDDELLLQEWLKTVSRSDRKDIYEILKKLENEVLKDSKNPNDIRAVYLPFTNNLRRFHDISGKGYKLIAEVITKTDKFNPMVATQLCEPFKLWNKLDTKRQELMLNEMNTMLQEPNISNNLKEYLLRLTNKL
# [11] = molecular target: T1, Neuropeptide Y receptor type 1; assay: Fluorescence-based counterscreen for agonists of NPY-Y2: cell-based high-throughput dose response assay for agonists of NPY-Y1.; type: functional
# [12] = CCR5-tropic HIV-1 fusion blockers – cell-based, CCR5-tropic Env, dose response (AID 2279); type: functional
# [13] = molecular target: T2, Neuropeptide Y receptor type 2; assay: Fluorescence-based cell-based high-throughput dose response assay for agonists of NPY-Y2. [Related pubchem assays: 1703 (Screening assay (CNGC inhibitors).), 1359 (Screening assay (NPY-Y2 potentiators or agonists).), 1304 (Screening assay (NPY-Y1 potentiators or agonists).), 1710 (Screening assay (NPY-Y2 agonists).), 1791 (Summary AID.)]; type: functional
# Vero = assay: viability of Vero cells under compound – cytotoxicity control for flavivirus capping enzyme inhibitors (AID 588742); type: functional; settings: Chlorocebus sabaeus
# HEK293 [14] = assay: Fluorescence-based counterscreen for potentiators or agonists of NPY-Y2: cell-based high-throughput dose response assay to identify inhibitors of cyclic nucleotide gated ion channel (CNGC) activity. In this assay, the parental HEK293 cell line transfected with a cyclic-nucleotide gated ion channel (CNGC)-based cAMP sensor is used to measure inhibition of isoproterenol-induced CNGC activity by test compound.; type: functional; settings: Homo sapiens
# [15] = molecular target: T4, Probable nicotinate-nucleotide adenylyltransferase; type: functional, Staphylococcus aureus subsp. aureus N315
# Cytochrome P450 2D6 = Cytochrome P450 2D6 (Homo sapiens, UniProt P10635); assay: qHTS Assay for Inhibitors and Substrates of Cytochrome P450 2D6. [Related pubchem assays: 410 ]; type: ADME; settings: read-out: Potency
# [16] = molecular target: Acyl-homoserine lactone acylase PvdQ (Pseudomonas aeruginosa (strain LESB58), UniProt Q9I194); assay: PvdQ acylase enzyme activity blockers – biochemical, fluorescence, plate reader and imaging, cherry-picks, dose response (AID 493231)
# Caspase-6 = molecular target: T6, Caspase-6 (Homo sapiens, UniProt P55212); assay: inhibition of CASP6 peptide cleavage – biochemical, VEID-R110 fluorescence, cherry-pick, dose response (AID 720632)
# T6 sequence (P55212 whole entry): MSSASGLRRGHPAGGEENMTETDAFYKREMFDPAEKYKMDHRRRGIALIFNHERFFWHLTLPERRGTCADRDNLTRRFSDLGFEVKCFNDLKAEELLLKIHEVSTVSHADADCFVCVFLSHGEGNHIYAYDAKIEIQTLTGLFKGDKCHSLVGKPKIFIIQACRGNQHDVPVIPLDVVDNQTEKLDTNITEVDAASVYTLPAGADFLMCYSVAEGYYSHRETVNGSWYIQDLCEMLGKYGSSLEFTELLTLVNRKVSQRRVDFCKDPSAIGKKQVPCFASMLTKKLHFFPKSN
# Prothrombin = Prothrombin (Bos taurus, UniProt P00735); assay: thrombin protease inhibitors – biochemical, fluorescence polarization, uHTS hits, dose response (AID 602369); type: functional
# [17] = molecular target: 72 kDa type IV collagenase (Homo sapiens, UniProt P08253); assay: Dose Response validation of uHTS RPN11 inhibitor hits using a MMP-2 Fluorescence assay.; type: functional
# [18] = molecular target: 26S proteasome non-ATPase regulatory subunit 14 (Homo sapiens, UniProt O00487); assay: inhibition of proteasome subunit RPN11 – biochemical, fluorescence polarization, uHTS hits, confirmation (AID 602368); type: functional
# [19] = molecular target: T7, Small ubiquitin-related modifier 1 (Homo sapiens, UniProt P63165); assay: SUMO1 protein interaction blockers, potency – biochemical, fluorescence polarization, uHTS hits, dose response (AID 624382); type: functional; settings: read-out: IC50_Mean
# cells = settings: A549
# [20] = molecular target: cAMP-dependent protein kinase catalytic subunit alpha (Homo sapiens, UniProt P17612); assay: inhibition of human PKA kinase activity – biochemical, Caliper mobility shift, dry powder samples, dose response (AID 504583)
# [21] = molecular target: T7, Small ubiquitin-related modifier 1; assay: SUMO1 protein-protein binding blockers, potency – biochemical, FRET, dose response (AID 624383); type: functional; settings: read-out: IC50_Mean
# [22] = viability loss in HepG2 liver cells – cell-based, ATP luminescence, cherry-pick, set 6, cytotoxicity control, dose response (AID 1053125); type: functional
# [23] = molecular target: T8, Alkaline phosphatase, tissue-nonspecific isozyme (Homo sapiens, UniProt P05186)
# T8 sequence (P05186 whole entry): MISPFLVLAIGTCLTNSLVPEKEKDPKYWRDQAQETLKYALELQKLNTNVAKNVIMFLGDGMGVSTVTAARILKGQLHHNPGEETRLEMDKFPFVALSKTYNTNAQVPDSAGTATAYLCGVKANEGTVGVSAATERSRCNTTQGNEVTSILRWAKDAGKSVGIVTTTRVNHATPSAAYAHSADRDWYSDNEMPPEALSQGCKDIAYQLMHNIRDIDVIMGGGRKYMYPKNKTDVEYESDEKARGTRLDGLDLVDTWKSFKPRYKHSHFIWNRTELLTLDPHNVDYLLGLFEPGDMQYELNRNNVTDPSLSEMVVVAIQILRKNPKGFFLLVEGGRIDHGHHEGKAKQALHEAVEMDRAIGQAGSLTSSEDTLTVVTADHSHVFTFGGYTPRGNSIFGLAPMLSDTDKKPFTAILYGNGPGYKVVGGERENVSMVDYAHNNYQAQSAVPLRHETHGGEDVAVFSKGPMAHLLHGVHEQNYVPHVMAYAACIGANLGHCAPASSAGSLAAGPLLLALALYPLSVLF
smiles,measurement,setting,value
CC1NC(C(=O)O)Cc2cc(O)c(O)cc21 (configuration not stated),IC50,[1],> 50 µM (not active)
CCN1C(NCC(C)C)=N[C@@H](c2cccc(C(F)(F)F)c2)C(C(=O)OC)=C1C,IC50,[2],10 µM (active)
same,IC50,[3],> 100 µM (inactive)
CSc1nc(SC(C)C(=O)O)c2c3c(sc2n1)COC(C)(C)C3 (configuration not stated),AC50,Salmon testes DNA,90.3 µM (active)
CC1CCC(C(C)C)C(OCC(O)CNC(C)c2ccccc2)C1 (configuration not stated),IC50,HEK293 [4],> 35.4 µM (not active)
same,EC50,[5],> 35.4 µM (not active)
same,EC50,[6],> 35.4 µM (not active)
same,EC50,[7],21.5 µM (inactive)
CCOC(=O)c1cnc(-n2cc(C)cn2)nc1NCc1ccc2c(c1)OCO2,IC50,[8],5.96 µM (active)
same,IC50,[9],> 67 µM (not active)
CN(C)S(=O)(=O)N(CC(=O)N(Cc1ccccc1)Cc1ccccc1)c1ccccc1,IC50,Estrogen receptor,24.9 µM (active)
same,IC50,Bcl-2-like protein 10,36.6 µM (active)
COc1ccccc1NS(=O)(=O)c1cccc(N2C(=O)/C(=C\Nc3ccccc3C(=O)O)c3ccccc3C2=O)c1,IC50,[10],22.2 µM (active)
same,IC50,Aminopeptidase N,30.4 µM (active)
same,EC50,[11],> 11.8 µM (not active)
same,IC50,[12],19.6 µM (active)
same,EC50,[13],20.1 µM (not active)
same,CC50,Vero,> 40 µM (active)
same,EC50,HEK293 [14],13.4 µM (not active)
same,IC50,[15],2.81 µM (active)
COC(=O)NC(c1ccc(F)cc1)C(C(C)=O)C(=O)OC (configuration not stated),AC50,Cytochrome P450 2D6,3.16 µM (inconclusive)
O=C1NN(c2ccccc2)C(=O)C2C1C1C=CC2C12CC2 (configuration not stated),AC50,[16],18.8 µM (active)
Nc1nc(-c2cc(O)ccc2[N+](=O)[O-])cc(-c2ccccc2)c1[N+](=O)[O-],AC50,Caspase-6,10.7 µM (active)
same,IC50,Prothrombin,53 µM (active)
same,IC50,[17],> 100 µM (inactive)
same,IC50,[18],23.9 µM (active)
same,IC50,[19],> 66.6 µM (inactive)
same,AC50,cells,42.5 µM (active)
same,AC50,[20],1.11 µM (active)
same,IC50,[21],9.51 µM (active)
same,AC50,[22],> 52 µM (inactive)
Oc1ccccc1/C=N/Nc1cccc2cccnc12,EC50,[23],> 100 µM (not active)
